# Values quoted from earlier work in US20240316119A1, “COMPOSITIONS AND METHODS FOR SUPPRESSING PATHOGENIC ORGANISMS” (VEDANTA BIOSCIENCES, INC., priority 2021, published 2024).
# System: Klebsiella pneumoniae and Citrobacter rodentium
# Conditions: reported in Stacy et al. Cell. 2021 184(3):615-627
smiles,measurement,value
"NCCS(=O)(=O)O [taurine, 2-aminoethanesulfonic acid]",effect of supplying exogenous taurine alone on microbiota function and resistance to infection,sufficient to induce this alteration in microbiota function and enhance resistance
